Experimental data from patent US12391671B2, “Allosteric EGFR inhibitors and methods of use thereof” (Dana-Farber Cancer Institute, Inc., priority 2019, dated 2025).
Where a name gives a salt, the structure may show the parent alone. Read-outs that look alike come from different tables or passages of the source.

Key:
[1] = system: EGFR mutant L858R Ba/F3 cells; assay: Ba/F3 cell proliferation model (Cell Titer Glo), EGFR L858R; format: cell-based, murine; conditions: 72 hours
Source text: Example 26: Ba/F3 Cell Proliferation Models
The EGFR mutant L858R and L858R/T790M Ba/F3 cells have been previously described (Zhou, W., et al. Nature 462, 2009, 1070-1074). All cell lines were maintained in RPM 1640 (Cellgro; Mediatech Inc., Herndon. CA) supplemented with 10% FBS, 100 units/mL penicillin, 100 units/mL streptomycin. The EGFR I941R mutation was introduced via site directed mutagenesis using the Quick Change Site-Directed Mutagenesis kit (Stratagene; La Jolla, CA) according to the manufacturer's instructions. All constructs were confirmed by DNA sequencing. The constructs were shuttled into the retroviral vector JP1540 using the Cre-recombination system (Agilent Technologies, Santa Clara, CA). Ba/F3 cells were then infected with retrovirus per standard protocols, as described previously (Zhou, et al, Nature 2009). Stable clones were obtained by selection in puromycin (2 μg/ml).
Growth and inhibition of growth was assessed by the Cell Titer Glo® assay (Promega, Madison, WI) and was performed according to the manufacturer's instructions. The Cell Titer Glo® assay is a luminescence-based method used to determine the number of viable cells based on quantitation of the ATP present, which is directly proportional to the amount of metabolically active cells present. Ba/F3 cells of different EGFR genotypes were exposed to compounds as a single agent or in combination with 1 μg/mL cetuximab for 72 hours and the number of cells used per experiment was determined empirically as has been previously established (Zhou, et al., Nature 2009). All experimental points were set up in triplicates in 384-well plates and all experiments were repeated at least three times. […] The curves were fitted using a non-linear regression model with a sigmoidal dose response.

EGFR L858R/T790M = EGFR L858R/T790M (Homo sapiens (Human), UniProt P00533, L858R/T790M); assay: HTRF-based EGFR biochemical assay (L858R/T790M); conditions: 100 μM ATP, enzyme 0.02 nM
Procedure, shortened: (§1)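 Mutant EGFR (L858R 0.1 nM, L858R/T790M 0.02 nM) preincubated 30 min with compounds at room temperature in HEPES pH 7.0 buffer with Mg2+/Mn2+, then reacted 20 min with 1 μM biotinylated tyrosine kinase peptide and 100 μM ATP. Phosphorylation read by HTRF (Eu-cryptate anti-phosphotyrosine/streptavidin-XL665, 665/620 nm) after EDTA quench.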

[2] = system: EGFR mutant L858R/T790M Ba/F3 cells; assay: Ba/F3 cell proliferation model (Cell Titer Glo), EGFR L858R/T790M; format: cell-based, murine; conditions: 72 hours
Procedure, shortened: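 Retrovirally transduced Ba/F3 cells exposed 72 h to compound alone or with 1 μg/mL cetuximab, triplicate points, repeated at least three times. Viability by Cell Titer Glo luminescence (ATP); curves fitted by non-linear sigmoidal dose-response regression.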

EGFR L858R = EGFR L858R (Homo sapiens (Human), UniProt P00533, L858R); assay: HTRF-based EGFR biochemical assay (L858R); conditions: 100 μM ATP, enzyme 0.1 nM
Procedure, shortened: as §1

[3] = Mus musculus, BaF3, single agent, read-out: Cell IC50 BaF3 EGFR L858R
[4] = Mus musculus, BaF3, single agent, read-out: Cell IC50 BaF3 EGFR L858R/T790M
[5] = in combination with 1 μg/mL cetuximab, read-out: Cell IC50 BaF3 EGFR L858R/T790M (+cetux.)
[6] = in combination with 1 μg/mL cetuximab, read-out: Cell IC50 BaF3 EGFR L858R (+cetux.)

EGFR L858R, sequence (P00533 25-1210 L858R): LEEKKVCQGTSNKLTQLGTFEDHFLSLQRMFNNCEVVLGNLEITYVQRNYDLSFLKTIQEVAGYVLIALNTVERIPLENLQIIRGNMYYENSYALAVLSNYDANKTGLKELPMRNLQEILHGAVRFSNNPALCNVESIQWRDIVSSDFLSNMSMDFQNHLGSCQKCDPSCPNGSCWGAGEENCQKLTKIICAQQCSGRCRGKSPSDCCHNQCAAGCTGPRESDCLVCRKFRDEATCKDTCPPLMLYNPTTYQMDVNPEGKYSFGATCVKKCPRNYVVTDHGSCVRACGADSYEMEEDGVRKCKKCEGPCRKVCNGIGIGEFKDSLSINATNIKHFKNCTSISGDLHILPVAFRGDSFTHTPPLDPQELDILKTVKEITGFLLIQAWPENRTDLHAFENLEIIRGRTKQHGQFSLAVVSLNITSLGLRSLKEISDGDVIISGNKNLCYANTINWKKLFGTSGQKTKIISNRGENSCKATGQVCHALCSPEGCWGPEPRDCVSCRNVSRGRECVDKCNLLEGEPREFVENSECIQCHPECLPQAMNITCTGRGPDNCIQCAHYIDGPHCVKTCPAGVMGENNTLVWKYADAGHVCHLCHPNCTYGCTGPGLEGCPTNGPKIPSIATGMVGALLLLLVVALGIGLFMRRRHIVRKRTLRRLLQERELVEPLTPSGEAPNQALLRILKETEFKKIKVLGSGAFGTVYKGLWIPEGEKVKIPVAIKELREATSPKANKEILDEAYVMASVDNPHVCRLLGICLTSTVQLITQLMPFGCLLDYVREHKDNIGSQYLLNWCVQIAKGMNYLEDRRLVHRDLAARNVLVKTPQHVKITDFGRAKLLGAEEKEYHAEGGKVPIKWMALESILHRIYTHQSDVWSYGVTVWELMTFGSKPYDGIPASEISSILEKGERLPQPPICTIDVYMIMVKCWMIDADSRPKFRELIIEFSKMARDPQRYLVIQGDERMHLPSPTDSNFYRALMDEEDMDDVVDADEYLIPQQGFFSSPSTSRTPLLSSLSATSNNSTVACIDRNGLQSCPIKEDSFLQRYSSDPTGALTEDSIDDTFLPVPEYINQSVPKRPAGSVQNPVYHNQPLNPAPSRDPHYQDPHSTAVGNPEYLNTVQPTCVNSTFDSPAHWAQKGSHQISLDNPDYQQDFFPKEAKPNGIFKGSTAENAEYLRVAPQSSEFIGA
EGFR L858R/T790M, sequence (P00533 25-1210 T790M/L858R): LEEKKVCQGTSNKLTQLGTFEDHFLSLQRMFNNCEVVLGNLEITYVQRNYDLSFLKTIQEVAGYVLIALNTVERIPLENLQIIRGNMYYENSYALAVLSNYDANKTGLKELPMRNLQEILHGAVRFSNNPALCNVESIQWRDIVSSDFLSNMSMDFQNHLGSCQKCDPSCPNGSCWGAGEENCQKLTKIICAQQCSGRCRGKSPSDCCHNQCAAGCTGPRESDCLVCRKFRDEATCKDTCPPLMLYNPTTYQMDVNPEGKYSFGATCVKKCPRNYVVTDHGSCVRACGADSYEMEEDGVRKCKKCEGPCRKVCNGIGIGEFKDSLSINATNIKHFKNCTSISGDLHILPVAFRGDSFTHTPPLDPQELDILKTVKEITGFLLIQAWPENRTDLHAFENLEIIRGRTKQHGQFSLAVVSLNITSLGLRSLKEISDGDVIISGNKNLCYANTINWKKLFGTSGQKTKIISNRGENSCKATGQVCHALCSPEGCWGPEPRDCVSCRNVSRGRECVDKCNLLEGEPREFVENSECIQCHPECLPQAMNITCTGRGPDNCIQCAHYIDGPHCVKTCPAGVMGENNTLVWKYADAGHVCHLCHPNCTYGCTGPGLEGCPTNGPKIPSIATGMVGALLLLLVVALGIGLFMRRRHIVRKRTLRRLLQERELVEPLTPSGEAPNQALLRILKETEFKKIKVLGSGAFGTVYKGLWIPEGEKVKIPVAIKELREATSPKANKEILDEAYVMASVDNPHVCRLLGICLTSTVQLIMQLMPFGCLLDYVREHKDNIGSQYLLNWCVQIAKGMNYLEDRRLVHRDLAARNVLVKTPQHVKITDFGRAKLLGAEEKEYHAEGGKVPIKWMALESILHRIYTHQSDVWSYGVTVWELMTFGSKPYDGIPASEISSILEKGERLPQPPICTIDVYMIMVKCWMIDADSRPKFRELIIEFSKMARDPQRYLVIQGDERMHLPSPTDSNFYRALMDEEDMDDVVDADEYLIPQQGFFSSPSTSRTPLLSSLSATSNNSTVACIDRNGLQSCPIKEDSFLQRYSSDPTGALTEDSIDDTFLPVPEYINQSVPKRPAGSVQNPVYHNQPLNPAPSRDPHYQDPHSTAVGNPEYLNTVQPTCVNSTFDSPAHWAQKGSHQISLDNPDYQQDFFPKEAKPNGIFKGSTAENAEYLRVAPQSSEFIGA

Row | Structure (SMILES) | IC50 [1, 3] [µM] | IC50 (EGFR L858R/T790M) [µM] | IC50 [2, 4] [µM] | IC50 [2, 5] [µM] | IC50 (EGFR L858R) [µM] | IC50 [1, 6] [µM] | IC50 ([1]; single agent, read-out: Cell IC50 BaF3 EGFR L858R) [µM] | IC50 ([2]; single agent, read-out: Cell IC50 BaF3 EGFR L858R/T790M) [µM]
1 | CN1CCC(c2ccc(-c3ccc4ncn(C(c5nc6ccccc6[nH]5)c5cc(F)ccc5O)c(=O)c4c3)cc2)CC1 (stereo not drawn) [Compound 006, 3-[1H-Benzimidazol-2-yl-(5-fluoro-2-hydroxy-phenyl)methyl]-6-[4-(1-methyl-4-piperidyl)-phenyl]quinazolin-4-one;hydrochloride] | 1.1 | 0.0005 | 0.28 | 0.005 | 0.002 | 0.06 |  | 
2 | CN1CCC(c2ccc(-c3ccc4ncn(C(c5nc6ccccc6[nH]5)c5cc(F)ccc5O)c(=O)c4n3)cc2)CC1 (stereo not drawn) [Compound 009, 3-((1H-Benzo[d]imidazol-2-yl)(5-fluoro-2-hydroxyphenyl)methyl)-6-(4-(1-methylpiperidin-4-yl)phenyl)pyrido[3,2-d]pyrimidin-4(3H)-one 2,2,2-trifluoroacetate] | 3.89 | 0.0004 | 0.94 | 0.02 | 0.003 | 0.18 |  | 
3 | CN1CCC(c2ccc(-c3ccc4c(c3)C(=O)N(C(c3nc5cccc(F)c5[nH]3)c3cc(F)ccc3O)C4)cc2)CC1 (stereo not drawn) [Compound 020, 2-[(7-Fluoro-1H-benzimidazol-2-yl)-(5-fluoro-2-hydroxy-phenylmethyl]-6-(4-(1-methy-4-piperidyl)phenyl]isoindolin-1-one; hydrochloride] | 1.36 |  | 0.44 | 0.006 |  | 0.17 |  | 
4 | CN1CCC(c2ccc(-c3ccc4c(c3)C(=O)N([C@@H](c3nc5ccccc5[nH]3)c3cc(F)ccc3O)C4)cc2)CC1 [Compound 022, 2-[(R)-1H-benzimidazol-2-yl-(5-fluoro-2-hydroxy-phenyl)methyl]-6-[4-(1-methyl-4-piperidyl)phenyl]isoindolin-1-one] |  | 0.0001 |  | 0.005 | 0.0003 | 0.04 | 0.64 | 0.38
5 | CN1CCC(c2ccc(-c3ccc4c(c3)C(=O)N(C(c3nc5ccccc5[nH]3)c3cc(F)ccc3O)C4)cc2)CC1 (stereo not drawn) [Compound 024, 2-[1H-Benzimidazol-2-yl-(5-fluoro-2-hydroxy-phenyl)methyl]-6-[4-(1-methyl-4-piperidyl)phenyl]isoindolin-1-one; hydrochloride] | 1.18 | 0.0005 | 0.44 | 0.007 | 0.002 | 0.06 |  | 
6 | CN1CCC(c2ccc(-c3ccc4c(c3F)C(=O)N(C(c3nc5ccccc5[nH]3)c3cc(F)ccc3O)C4)cc2)CC1 (stereo not drawn) [Compound 032, 2-[1H-benzimidazol-2-yl-(5-fluoro-2-hydroxy-phenyl)methyl]-7-fluoro-6-[4-(1-methyl-4-piperidyl)phenyl]isoindolin-1-one;hydrochloride] | 0.96 |  | 0.21 | 0.007 |  | 0.05 |  | 
7 | CN1CCC(c2ccc(-c3ccc4cn(C(c5nc6ccccc6[nH]5)c5cc(F)ccc5O)nc4c3F)cc2)CC1 (stereo not drawn) [Compound 034, 2-[1H-benzimidazol-2-yl-[7-fluoro-6-[4-(1-methyl-4-piperidyl)phenyl]indazol-2-yl]methyl]-4-fluoro-phenol;hydrochloride] | 1.43 | 0.0007 | 0.42 | 0.005 | 0.004 | 0.06 |  | 
8 | CN1CCC(c2ccc(-c3ccc4ccn(C(c5nc6ccccc6[nH]5)c5cc(F)ccc5O)c(=O)c4c3)cc2)CC1 (stereo not drawn) [Compound 063, 2-[1H-benzimidazol-2-yl-(5-fluoro-2-hydroxy-phenyl)methyl]-7-[4-(1-methyl-4-piperidyl)phenyl]isoquinolin-1-one] | 1.05 | 0.002 | 0.89 | 0.05 | 0.009 |  |  | 
9 | CN1CCC(c2ccc(-c3ccc4ccn(C(c5ccccc5)c5nc6ccccc6[nH]5)c(=O)c4c3F)cc2)CC1 (stereo not drawn) [Compound 071] | 1.21 | 0.02 | 1.38 | 0.33 | > 0.1 |  |  | 
10 | Cc1nnc(C(c2cc(F)ccc2O)N2Cc3ccc(-c4ccc(C5CCN(C)CC5)cc4)cc3C2=O)[nH]1 (stereo not drawn) [Compound 089, 2-[(5-fluoro-2-hydroxy-phenyl)-(5-methyl-4H-1,2,4-triazol-3-yl)methyl]-6-[4-(1-methyl-4-piperidyl)phenyl]isoindolin-1-one;hydrochloride] | 4.53 |  | 5.95 |  |  |  |  | 

Further lines, with some results ahead:

Row | IC50 [1, 3] [µM] | IC50 (EGFR L858R/T790M) [µM] | IC50 [2, 4] [µM] | IC50 [2, 5] [µM] | IC50 (EGFR L858R) [µM] | IC50 [1, 6] [µM] | Structure (SMILES) | IC50 ([1]; single agent, read-out: Cell IC50 BaF3 EGFR L858R) [µM] | IC50 ([2]; single agent, read-out: Cell IC50 BaF3 EGFR L858R/T790M) [µM]
11 | 0.36 | 0.005 | 0.52 | 0.01 | 0.009 |  | CN1CCC(c2ccc(-c3ccc4c(=O)n(C(c5nc6ccccc6[nH]5)c5cc(F)ccc5O)ccc4c3)cc2)CC1 (racemic) [Compound 069, Rac-2-(1H-1,3-benzodiazol-2-yl)(5-fluoro-2-hydroxyphenyl)methyl]-6-[4-(1-methylpiperidin-4-yl)phenyl]-1,2-dihydroisoquinolin-1-one] |  | 
12 | 0.13 | 0.0005 | 0.03 |  | 0.002 |  | CN1CCC(c2ccc(-c3cc(F)c4c(=O)n([C@@H](c5nc6ccccc6[nH]5)c5cc(F)ccc5O)ccc4c3)cc2)CC1 (single isomer, unassigned) [Compound 065] |  | 
13 | 0.63 | 0.0006 | 0.2 |  | 0.001 |  | CN1CCC(c2ccc(-c3ccc4c(c3)C(=S)N([C@@H](c3nc5ccccc5[nH]3)c3cc(F)ccc3O)C4)cc2)CC1 (single isomer, unassigned) [Compound 083] |  | 
14 | 0.24 | 0.0004 | 0.09 | 0.01 | 0.001 | 0.03 | CN1CCC(c2ccc(-c3ccc4ncn(C(c5nc6ccccc6[nH]5)c5cc(F)ccc5O)c(=O)c4c3F)cc2)CC1 (stereo not drawn) [Compound 004, 3-((1H-Benzo[d]imidazol-2-yl)(5-fluoro-2-hydroxyphenyl)methyl)-5-fluoro-6-(4-(1-methylpiperidin-4-yl)phenyl)quinazolin-4(3H)-one 2,2,2-trifluoroacetate] |  | 
15 | 0.81 | 0.0003 | 0.71 | 0.01 | 0.002 | 0.06 | CN1CCC(c2ccc(-c3ccc4c(c3)C(=O)N(C(c3nc5cccnc5[nH]3)c3cc(F)ccc3O)C4)cc2)CC1 (stereo not drawn) [Compound 014, 2-[(5-Fluoro-2-hydroxy-phenyl)-(3H-imidazo[4,5-b]pyridin-2-yl)methyl]-6-[4-(1-methyl-4-piperidyl)phenyl]isoindolin-1-one; hydrochloride] |  | 
16 | 0.67 | 0.02 | 0.22 | 0.02 | 0.031 |  | CN1CCC(c2ccc(-c3cc(F)c4c(=O)n(C(c5ccccc5)c5nc6ccccc6[nH]5)ccc4c3)cc2)CC1 (stereo not drawn) [Compound 064, 2-[1H-benzimidazol-2-yl(phenyl)methyl]-8-fluoro-6-[4-(1-methyl-4-piperidyl)phenyl]-isoquinolin-1-one; dihydrochloride] |  | 
17 | 0.16 | 0.001 | 0.07 | 0.005 | 0.004 |  | CN1CCC(c2ccc(-c3cc(F)c4c(=O)n(C(c5nc6ccccc6[nH]5)c5cc(F)ccc5O)ccc4c3)cc2)CC1 (stereo not drawn) [Compound 070, 2-[1H-benzimidazol-2-yl-(5-fluoro-2-hydroxy-phenyl)methyl]-8-fluoro-6-[4-(1-methyl-4-piperidyl)phenyl]isoquinolin-1-one] |  | 
18 | 0.93 | 0.014 | 0.58 | 0.02 | 0.021 |  | CN1CCC(c2ccc(-c3cc4ccn(C(c5nc6ccccc6[nH]5)c5cc(F)ccc5O)c(=O)c4cc3F)cc2)CC1 (stereo not drawn) [Compound 073, 2-[1H-benzimidazol-2-yl-(5-fluoro-2-hydroxy-phenyl)methyl]-7-fluoro-6-[4-(1-methyl-4-piperidy)phenyl]-isoquinolin-1-one] |  | 
